Assay: molar heat capacity at constant volume
Settings: Fluid (supercritical or subcritical phases), Vacuum adiabatic calorimetry

CCC(C)O (stereo not given) [butan-2-ol]
Settings	molar heat capacity at constant volume [J/K/mol]
527.47 K, Mass density=142.27 kg/m3	538.57
527.66 K, Mass density=142.27 kg/m3	541.75
527.84 K, Mass density=142.27 kg/m3	547.68
527.89 K, Mass density=142.27 kg/m3	524.19
527.91 K, Mass density=142.27 kg/m3	561.92
527.93 K, Mass density=142.27 kg/m3	439.91
527.95 K, Mass density=142.27 kg/m3	388.84
527.97 K, Mass density=142.27 kg/m3	388.92
527.99 K, Mass density=142.27 kg/m3	375.57
528.01 K, Mass density=142.27 kg/m3	386.62
528.02 K, Mass density=142.27 kg/m3	388.84
528.02 K, Mass density=403.55 kg/m3	319.46
528.21 K, Mass density=142.27 kg/m3	337.77
528.21 K, Mass density=403.55 kg/m3	320.21
528.39 K, Mass density=403.55 kg/m3	321.69
528.58 K, Mass density=403.55 kg/m3	321.69
528.76 K, Mass density=403.55 kg/m3	324.65
528.95 K, Mass density=142.27 kg/m3	295.37
528.95 K, Mass density=403.55 kg/m3	322.43
529.13 K, Mass density=142.27 kg/m3	274.69
529.13 K, Mass density=403.55 kg/m3	326.14
529.31 K, Mass density=142.27 kg/m3	275.36
529.31 K, Mass density=403.55 kg/m3	306.86
529.5 K, Mass density=403.55 kg/m3	232
529.68 K, Mass density=403.55 kg/m3	229.78
529.87 K, Mass density=403.55 kg/m3	227.55
530.05 K, Mass density=142.27 kg/m3	274.1
530.23 K, Mass density=142.27 kg/m3	282.55
530.23 K, Mass density=403.55 kg/m3	227.55
530.42 K, Mass density=142.27 kg/m3	282.33
530.42 K, Mass density=403.55 kg/m3	228.29
530.6 K, Mass density=403.55 kg/m3	232
530.79 K, Mass density=184.89 kg/m3	471.41
530.79 K, Mass density=403.55 kg/m3	229.78
530.97 K, Mass density=184.89 kg/m3	466.37
530.97 K, Mass density=403.55 kg/m3	232
531.15 K, Mass density=184.89 kg/m3	474.16
531.15 K, Mass density=347.06 kg/m3	363.2
531.15 K, Mass density=403.55 kg/m3	229.78
531.34 K, Mass density=184.89 kg/m3	489.72
531.34 K, Mass density=347.06 kg/m3	356.52
531.34 K, Mass density=403.55 kg/m3	233.48
531.52 K, Mass density=184.89 kg/m3	492.32
531.52 K, Mass density=347.06 kg/m3	358.01
531.52 K, Mass density=403.55 kg/m3	233.48
531.7 K, Mass density=184.89 kg/m3	488.16
531.7 K, Mass density=284.93 kg/m3	365.79
531.7 K, Mass density=301.19 kg/m3	380.99
531.7 K, Mass density=347.06 kg/m3	360.23
531.7 K, Mass density=403.55 kg/m3	237.19
531.89 K, Mass density=184.89 kg/m3	479.34
531.89 K, Mass density=284.93 kg/m3	377.35
531.89 K, Mass density=301.19 kg/m3	380.99
531.89 K, Mass density=347.06 kg/m3	364.68
531.89 K, Mass density=403.55 kg/m3	239.41
532.07 K, Mass density=184.89 kg/m3	478.97
532.07 K, Mass density=245.67 kg/m3	434.57
532.07 K, Mass density=284.93 kg/m3	387.43
532.07 K, Mass density=347.06 kg/m3	363.94
532.07 K, Mass density=403.55 kg/m3	238.67
532.26 K, Mass density=184.89 kg/m3	490.54
532.26 K, Mass density=245.67 kg/m3	439.02
532.26 K, Mass density=286.65 kg/m3	404.56
532.26 K, Mass density=301.19 kg/m3	388.4
532.26 K, Mass density=347.06 kg/m3	364.68
532.26 K, Mass density=403.55 kg/m3	236.45
532.44 K, Mass density=245.67 kg/m3	433.61
532.44 K, Mass density=286.65 kg/m3	410.63
532.44 K, Mass density=301.19 kg/m3	386.17
532.44 K, Mass density=347.06 kg/m3	361.71
532.62 K, Mass density=184.89 kg/m3	485.64
532.62 K, Mass density=198.25 kg/m3	477.94
532.62 K, Mass density=245.67 kg/m3	439.84
532.62 K, Mass density=286.65 kg/m3	417.75
532.62 K, Mass density=301.19 kg/m3	388.4
532.62 K, Mass density=347.06 kg/m3	361.71
532.62 K, Mass density=403.55 kg/m3	232
532.81 K, Mass density=184.89 kg/m3	501.51
532.81 K, Mass density=198.25 kg/m3	476.53
532.81 K, Mass density=245.67 kg/m3	441.76
532.81 K, Mass density=286.65 kg/m3	423.83
532.81 K, Mass density=301.19 kg/m3	385.43
532.81 K, Mass density=347.06 kg/m3	364.68
532.81 K, Mass density=403.55 kg/m3	231.26
532.81 K, Mass density=474.07 kg/m3	191.23
532.99 K, Mass density=184.89 kg/m3	501.8
532.99 K, Mass density=198.25 kg/m3	476.23
532.99 K, Mass density=245.67 kg/m3	435.17
532.99 K, Mass density=286.65 kg/m3	421.6
532.99 K, Mass density=301.19 kg/m3	390.62
532.99 K, Mass density=347.06 kg/m3	370.61
532.99 K, Mass density=474.07 kg/m3	191.23
533.17 K, Mass density=184.89 kg/m3	502.32
533.17 K, Mass density=198.25 kg/m3	482.38
533.17 K, Mass density=245.67 kg/m3	443.91
533.17 K, Mass density=284.93 kg/m3	404.04
533.17 K, Mass density=286.65 kg/m3	417.75
533.17 K, Mass density=301.19 kg/m3	393.59
533.17 K, Mass density=347.06 kg/m3	373.57
533.17 K, Mass density=474.07 kg/m3	197.16
533.36 K, Mass density=184.89 kg/m3	511.07
533.36 K, Mass density=198.25 kg/m3	490.83
533.36 K, Mass density=245.67 kg/m3	447.32
533.36 K, Mass density=284.93 kg/m3	410.71
533.36 K, Mass density=286.65 kg/m3	416.27

— the NIST ThermoML archive (doi:10.1016/j.tca.2013.08.031)
